Entries after “also recorded” stand apart in the source; their conditions may differ.
Legend:
[1] = 1 M HCl (acid hydrolysis); conditions: 37 °C (24 h) and 80 °C (12 h), up to 96 h (time course, Figure 2C); 24 h at 37 °C; 12 h at 80 °C
[2] = 1 M NaOH (base hydrolysis); conditions: 37 °C (24 h) and 80 °C (12 h), up to 96 h (time course, Figure 2D); 24 h at 37 °C; 12 h at 80 °C
HCl (1 M) = conditions: 80 °C for 12 h and 37°C for 24 h, up to 96 h
[3] = 30% (v/v) hydrogen peroxide (H2O2); conditions: 37 °C for 24 h and 80 °C for 12 h, up to 24 h

| Substance | fragment found [1] | fragment found [2] | cleaved bond (HCl (1 M)) | cleaved bond [3] |
| --- | --- | --- | --- | --- |
| HELM PEPTIDE1{[Cc1cc(O)cc(C)c1C[C@H](N)C(=O)[*:2]].[dK].F.F.K.K.P.F.[CC(C)(C)[C@H](N[*:1])C(=O)[*:2]].L}$$$$V2.0 (N-terminus assumed; SMILES Cc1cc(O)cc(C)c1C[C@H](N)C(=O)N[C@H](CCCCN)C(=O)N[C@@H](Cc1ccccc1)C(=O)N[C@@H](Cc1ccccc1)C(=O)N[C@@H](CCCCN)C(=O)N[C@@H](CCCCN)C(=O)N1CCC[C@H]1C(=O)N[C@@H](Cc1ccccc1)C(=O)N[C@H](C(=O)N[C@@H](CC(C)C)C(=O)O)C(C)(C)C) | compound H—Phe-Lys-Lys-Pro-Phe-Tle-Leu; also recorded: compound K—Pro-Phe-Tle | compound H—Phe-Lys-Lys-Pro-Phe-Tle-Leu; also recorded: compound K—Pro-Phe-Tle; also recorded: compound J (Pro-Phe-Tle-Leu) |  |  |
| HELM PEPTIDE1{[Cc1cc(O)cc(C)c1C[C@H](N)C(=O)[*:2]].[dK].F.F.K.K.P.F.I.L}$$$$V2.0 (N-terminus assumed; SMILES CC[C@H](C)[C@H](NC(=O)[C@H](Cc1ccccc1)NC(=O)[C@@H]1CCCN1C(=O)[C@H](CCCCN)NC(=O)[C@H](CCCCN)NC(=O)[C@H](Cc1ccccc1)NC(=O)[C@H](Cc1ccccc1)NC(=O)[C@@H](CCCCN)NC(=O)[C@@H](N)Cc1c(C)cc(O)cc1C)C(=O)N[C@@H](CC(C)C)C(=O)O) |  |  | Phe-Ile9; also recorded: D-Lys2-Phe | Dmt1-D-Lys2 |

From article PMC9500858 (International Journal of Molecular Sciences, 2022)
